Laboratory results reported in PMC9910440, “NADP(H)-dependent biocatalysis without adding NADP(H)” (Proceedings of the National Academy of Sciences of the …, 2022).

Experiments:
[1] = molecular target: T1, Ferredoxin NADP+ reductase (FNR) (Chlamydomonas reinhardtii, UniProt P53991); assay: 1H NMR of cofactor released by denaturation; format: binding; settings: prosthetic group
T1 construct: gene PETH; recombinant, purified; 39 kDa; FAD flavoprotein

[2] = molecular target: T2, IDH1 (isocitrate dehydrogenase 1) (Homo sapiens, UniProt O75874, R132H); assay: electrochemical retention after buffer exchange and potential switch; format: biochemical; settings: nanoconfined with FNR; resting state; binds much less tightly than NADPH; pH 8, 10 mM MgCl2
T2 construct: recombinant, purified; copurifies with NADP(H)
T2 sequence (O75874 whole entry R132H): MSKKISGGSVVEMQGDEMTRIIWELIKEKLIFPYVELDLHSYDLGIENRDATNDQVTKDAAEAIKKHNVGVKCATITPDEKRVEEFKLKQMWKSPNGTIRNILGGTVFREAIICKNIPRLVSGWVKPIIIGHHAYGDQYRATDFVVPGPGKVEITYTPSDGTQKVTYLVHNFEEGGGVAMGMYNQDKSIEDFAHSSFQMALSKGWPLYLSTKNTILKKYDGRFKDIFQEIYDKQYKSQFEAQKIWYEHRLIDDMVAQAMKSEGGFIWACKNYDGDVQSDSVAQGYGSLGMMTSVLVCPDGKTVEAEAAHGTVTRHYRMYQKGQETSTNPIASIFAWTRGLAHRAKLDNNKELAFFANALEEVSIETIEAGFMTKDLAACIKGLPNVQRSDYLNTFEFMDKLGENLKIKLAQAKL

[3] = molecular target: T3, IDH1 (isocitrate dehydrogenase 1) (Homo sapiens, UniProt O75874); assay: 1H NMR of cofactor released by thermal denaturation; native MS; electrochemical retention; format: binding; settings: copurified; resting state, no substrate; part of a NADP+/NADPH mixture
T3 construct: recombinant, purified; copurifies with NADP(H)
T3 sequence (O75874 whole entry): as the sequence (O75874 whole entry R132H) above, with H132R counted along it

[4] = molecular target: T2, IDH1 (isocitrate dehydrogenase 1); assay: non-denaturing mass spectrometry; 1H NMR after denaturation; format: binding; settings: copurified; NMR identifies NADPH only; resting state, no substrate

T1 sequence (P53991 36-354): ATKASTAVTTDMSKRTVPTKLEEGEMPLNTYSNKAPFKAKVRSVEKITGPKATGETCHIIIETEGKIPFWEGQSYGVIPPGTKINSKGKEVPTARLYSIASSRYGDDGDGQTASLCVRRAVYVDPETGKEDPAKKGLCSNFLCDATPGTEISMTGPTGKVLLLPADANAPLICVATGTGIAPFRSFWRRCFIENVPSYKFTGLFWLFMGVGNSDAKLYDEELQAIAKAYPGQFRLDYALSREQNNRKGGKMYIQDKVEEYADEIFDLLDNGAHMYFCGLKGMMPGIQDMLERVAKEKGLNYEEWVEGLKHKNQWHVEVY

Row | NADP(H) active site occupancy [4] | SMILES | 1H NMR of cofactor released by denaturation [1] | electrochemical retention after buffer exchange and potential switch [2] | 1H NMR of cofactor released by thermal denaturation; native MS; electrochemical [3]
1 | – | Cc1cc2nc3c(=O)[nH]c(=O)nc-3n(C[C@H](O)[C@H](O)[C@H](O)COP(=O)(O)OP(=O)(O)OC[C@H]3O[C@@H](n4cnc5c(N)ncnc54)[C@H](O)[C@@H]3O)c2cc1C [flavin adenine dinucleotide] | release of its prosthetic group, flavin adenine dinucleotide (FAD), upon denaturation | – | –
2 | – | NC(=O)c1ccc[n+]([C@@H]2O[C@H](COP(=O)(O)OP(=O)(O)OC[C@H]3O[C@@H](n4cnc5c(N)ncnc54)[C@H](OP(=O)(O)O)[C@@H]3O)[C@@H](O)[C@H]2O)c1 [NADP^+] | – | IDH1 R132H binds NADP^+ much less tightly than NADPH | wild-type IDH1 (Fig. 1A) copurified with a mixture of NADP^+ and NADPH bound
3 | ~ 97.5% | NC(=O)C1=CN([C@@H]2O[C@H](COP(=O)(O)OP(=O)(O)OC[C@H]3O[C@@H](n4cnc5c(N)ncnc54)[C@H](OP(=O)(O)O)[C@@H]3O)[C@@H](O)[C@H]2O)C=CC1 [NADPH] | – | – | wild-type IDH1 (Fig. 1A) copurified with a mixture of NADP^+ and NADPH bound
